Results taken from patent US20230278972A1, “SUBSTITUTED HALOALKYL SULFONANILIDE HERBICIDES” (FMC Corporation, priority 2020, published 2023).

What was measured:
Format in all cases: in vivo
[1] = tested on: pigweed (Amaranthus retroflexus); test: Test A preemergence, pigweed; settings: for Pigweed plant response rating: visual injury on 0 to 100 scale (0 no effect, 100 complete control), approximately 10 days; for Plant response rating, Pigweed: 0 to 100 scale (0 no effect, 100 complete control)
In short: (§1)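 After sowing into a sand-amended loam, pots for the preemergence test were treated by spraying directly onto soil. In parallel, seedlings at the one- to two-leaf stage and 2 to 10 cm tall were treated postemergence with the identical surfactant-containing formulation.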

[2] = tested on: barnyardgrass (Echinochloa crus-galli); test: Test A preemergence, barnyardgrass; settings: Preemergence; for Barnyardgrass plant response rating: visual injury on 0 to 100 scale (0 no effect, 100 complete control), approximately 10 days; for Plant response rating, Barnyardgrass: 0 to 100 scale (0 no effect, 100 complete control)
In short: (§2)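 Greenhouse pot test in a loam–sand blend; compounds delivered in a non-phytotoxic solvent carrying a surfactant, applied either as a directed spray to soil at seeding or over seedlings 2 to 10 cm high with one to two leaves.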

[3] = tested on: blackgrass (Alopecurus myosuroides); test: Test A postemergence, blackgrass; settings: Postemergence, 0 to 100 scale (0 no effect, 100 complete control)
In short: as §2

corn (Zea mays) = test: Test A postemergence, corn; settings: Postemergence, 0 to 100 scale (0 no effect, 100 complete control)
In short: as §2

kochia (Bassia scoparia) [4] = test: Test A preemergence, kochia; settings: Preemergence; for Kochia plant response rating: visual injury on 0 to 100 scale (0 no effect, 100 complete control), approximately 10 days; for Plant response rating, Kochia: 0 to 100 scale (0 no effect, 100 complete control)
In short: as §2

[5] = tested on: Foxtail, Giant (giant foxtail, Setaria faberi); test: Test A postemergence, Foxtail, Giant; settings: Postemergence, 0 to 100 scale (0 no effect, 100 complete control)
In short: as §2

[6] = tested on: ragweed (common ragweed, Ambrosia artemisiifolia); test: Test A postemergence, ragweed; settings: Postemergence, 0 to 100 scale (0 no effect, 100 complete control)
In short: as §2

[7] = tested on: pigweed (Amaranthus retroflexus); test: Test A postemergence, pigweed; settings: Postemergence, 0 to 100 scale (0 no effect, 100 complete control)
In short: as §2

[8] = tested on: barnyardgrass (Echinochloa crus-galli); test: Test A postemergence, barnyardgrass; settings: Postemergence, 0 to 100 scale (0 no effect, 100 complete control)
In short: as §1

[9] = tested on: ragweed (common ragweed, Ambrosia artemisiifolia); test: Test A preemergence, ragweed; settings: Preemergence; for Ragweed plant response rating: visual injury on 0 to 100 scale (0 no effect, 100 complete control), approximately 10 days; for Plant response rating, Ragweed: 0 to 100 scale (0 no effect, 100 complete control)
In short: as §2

[10] = tested on: galium (catchweed bedstraw, Galium aparine); test: Test A postemergence, galium; settings: Postemergence, 0 to 100 scale (0 no effect, 100 complete control)
In short: as §1

[11] = tested on: Foxtail, Giant (giant foxtail, Setaria faberi); test: Test A preemergence, Foxtail, Giant; settings: Preemergence; for Foxtail, Giant plant response rating: visual injury on 0 to 100 scale (0 no effect, 100 complete control), approximately 10 days; for Plant response rating, Foxtail, Giant: 0 to 100 scale (0 no effect, 100 complete control)
In short: as §2

[12] = tested on: wheat (Triticum aestivum); test: Test A postemergence, wheat; settings: Postemergence, 0 to 100 scale (0 no effect, 100 complete control)
In short: as §1

[13] = tested on: Ryegrass, Italian (Italian ryegrass, Lolium multiflorum); test: Test A preemergence, Ryegrass, Italian; settings: Preemergence; for Ryegrass, Italian plant response rating: visual injury on 0 to 100 scale (0 no effect, 100 complete control), approximately 10 days; for Plant response rating, Ryegrass, Italian: 0 to 100 scale (0 no effect, 100 complete control)
In short: as §2

[14] = tested on: Ryegrass, Italian (Italian ryegrass, Lolium multiflorum); test: Test A postemergence, Ryegrass, Italian; settings: Postemergence, 0 to 100 scale (0 no effect, 100 complete control)
In short: as §2

kochia (Bassia scoparia) [15] = test: Test A postemergence, kochia; settings: Postemergence, 0 to 100 scale (0 no effect, 100 complete control)
In short: as §2

[16] = 500 g ai/ha, visual injury vs untreated controls after approx. 10 days
[17] = 125 g ai/ha, visual injury, approx. 10 days
[18] = 500 g ai/ha, visual injury approx. 10 days
[19] = 1000 g ai/ha, visual injury, approx. 10 days

## Cc1cc(Cl)c(C2=NOC3(CCCC3)C2)cc1N(S(=O)(=O)C(F)(F)F)S(=O)(=O)C(F)(F)F [Compound 186]
[1]; 125 g ai/ha
  Pigweed plant response rating: 20
[1]; 500 g ai/ha
  Plant response rating, Pigweed: 80
[2]; 125 g ai/ha
  Barnyardgrass plant response rating: 60
[2]; 500 g ai/ha
  Plant response rating, Barnyardgrass: 100
[3]; 125 g ai/ha
  Plant response rating, Blackgrass: 0
[3]; [16]
  Blackgrass plant response rating: 20
Corn (Zea mays); 125 g ai/ha
  Plant response rating, Corn: 0
Corn (Zea mays); [16]
  Corn plant response rating: 30
Kochia (Bassia scoparia) [4]; 125 g ai/ha
  Kochia plant response rating: 20
Kochia (Bassia scoparia) [4]; 500 g ai/ha
  Plant response rating, Kochia: 70
[5]; 125 g ai/ha
  Plant response rating, Foxtail, Giant: 0
[5]; [16]
  Foxtail, Giant plant response rating: 20
[6]; 125 g ai/ha
  Plant response rating, Ragweed: 40
[6]; [16]
  Ragweed plant response rating: 60
[7]; 125 g ai/ha
  Plant response rating, Pigweed: 0
[7]; [16]
  Pigweed plant response rating: 50
[8]; 125 g ai/ha
  Plant response rating, Barnyardgrass: 10
[8]; [16]
  Barnyardgrass plant response rating: 20
[9]; 125 g ai/ha
  Ragweed plant response rating: 20
[9]; 500 g ai/ha
  Plant response rating, Ragweed: 50
[10]; 125 g ai/ha
  Plant response rating, Galium: 60
[10]; [16]
  Galium plant response rating: 80
[11]; 125 g ai/ha
  Foxtail, Giant plant response rating: 60
[11]; 500 g ai/ha
  Plant response rating, Foxtail, Giant: 100
[12]; 125 g ai/ha
  Plant response rating, Wheat: 0
[12]; [16]
  Wheat plant response rating: 30
[13]; 125 g ai/ha
  Ryegrass, Italian plant response rating: 60
[13]; 500 g ai/ha
  Plant response rating, Ryegrass, Italian: 100
[14]; 125 g ai/ha
  Plant response rating, Ryegrass, Italian: 0
[14]; [16]
  Ryegrass, Italian plant response rating: 20
Kochia (Bassia scoparia) [15]; 125 g ai/ha
  Plant response rating, Kochia: 10
Kochia (Bassia scoparia) [15]; [16]
  Kochia plant response rating: 40

## Cc1cc(Cl)c(C(=O)N2CCOCC2)cc1N(S(=O)(=O)C(F)(F)F)S(=O)(=O)C(F)(F)F [Compound 250]
[1]; [17]
  Plant response rating, Pigweed: 100
[1]; 500 g ai/ha
  Pigweed plant response rating: 100
[2]; [17]
  Plant response rating, Barnyardgrass: 40
[2]; 500 g ai/ha
  Barnyardgrass plant response rating: 90
[3]; 125 g ai/ha
  Plant response rating, Blackgrass: 0
[3]; [18]
  Plant response rating, Blackgrass: 50
Corn (Zea mays); 125 g ai/ha
  Plant response rating, Corn: 0
Corn (Zea mays); [18]
  Plant response rating, Corn: 30
Kochia (Bassia scoparia) [4]; [17]
  Plant response rating, Kochia: 80
Kochia (Bassia scoparia) [4]; 500 g ai/ha
  Kochia plant response rating: 100
[5]; 125 g ai/ha
  Plant response rating, Foxtail, Giant: 0
[5]; [18]
  Plant response rating, Foxtail, Giant: 10
[6]; 125 g ai/ha
  Plant response rating, Ragweed: 80
[6]; [18]
  Plant response rating, Ragweed: 90
[7]; 125 g ai/ha
  Plant response rating, Pigweed: 80
[7]; [18]
  Plant response rating, Pigweed: 90
[8]; 125 g ai/ha
  Plant response rating, Barnyardgrass: 20
[8]; [18]
  Plant response rating, Barnyardgrass: 40
[9]; [17]
  Plant response rating, Ragweed: 80
[9]; 500 g ai/ha
  Ragweed plant response rating: 90
[10]; 125 g ai/ha
  Plant response rating, Galium: 50
[10]; [18]
  Plant response rating, Galium: 80
[11]; [17]
  Plant response rating, Foxtail, Giant: 90
[11]; 500 g ai/ha
  Foxtail, Giant plant response rating: 100
[12]; 125 g ai/ha
  Plant response rating, Wheat: 20
[12]; [18]
  Plant response rating, Wheat: 30
[13]; [17]
  Plant response rating, Ryegrass, Italian: 60
[13]; 500 g ai/ha
  Ryegrass, Italian plant response rating: 90
[14]; 125 g ai/ha
  Plant response rating, Ryegrass, Italian: 0
[14]; [18]
  Plant response rating, Ryegrass, Italian: 20
Kochia (Bassia scoparia) [15]; 125 g ai/ha
  Plant response rating, Kochia: 70
Kochia (Bassia scoparia) [15]; [18]
  Plant response rating, Kochia: 90

## Cc1cc(C)c(C(=O)N2CCC(F)CC2)cc1NS(=O)(=O)C(F)(F)F [Compound 8]
[1]; 1000 g ai/ha
  Plant response rating, Pigweed: 100
[2]; 1000 g ai/ha
  Plant response rating, Barnyardgrass: 100
[3]; [19]
  Plant response rating, Blackgrass: 70
Corn (Zea mays); [19]
  Plant response rating, Corn: 30
Kochia (Bassia scoparia) [4]; 1000 g ai/ha
  Plant response rating, Kochia: 100
[5]; [19]
  Plant response rating, Foxtail, Giant: 90
[6]; [19]
  Plant response rating, Ragweed: 90
[7]; [19]
  Plant response rating, Pigweed: 80
[8]; [19]
  Plant response rating, Barnyardgrass: 80
[9]; 1000 g ai/ha
  Plant response rating, Ragweed: 90
[10]; [19]
  Plant response rating, Galium: 20
[11]; 1000 g ai/ha
  Plant response rating, Foxtail, Giant: 100
[12]; [19]
  Plant response rating, Wheat: 40
[13]; 1000 g ai/ha
  Plant response rating, Ryegrass, Italian: 100
[14]; [19]
  Plant response rating, Ryegrass, Italian: 80
Kochia (Bassia scoparia) [15]; [19]
  Plant response rating, Kochia: 80

## Cc1cc(C)c(N(S(=O)(=O)C(F)(F)F)S(=O)(=O)C(F)(F)F)cc1C(=O)N1CCCOCC1 [Compound 276]
[1]; [17]
  Plant response rating, Pigweed: 80
[1]; 500 g ai/ha
  Pigweed plant response rating: 100
[2]; [17]
  Plant response rating, Barnyardgrass: 70
[2]; 500 g ai/ha
  Barnyardgrass plant response rating: 100
[3]; 125 g ai/ha
  Plant response rating, Blackgrass: 0
[3]; [18]
  Plant response rating, Blackgrass: 0
Corn (Zea mays); 125 g ai/ha
  Plant response rating, Corn: 0
Corn (Zea mays); [18]
  Plant response rating, Corn: 20
Kochia (Bassia scoparia) [4]; [17]
  Plant response rating, Kochia: 0
Kochia (Bassia scoparia) [4]; 500 g ai/ha
  Kochia plant response rating: 0
[5]; 125 g ai/ha
  Plant response rating, Foxtail, Giant: 10
[5]; [18]
  Plant response rating, Foxtail, Giant: 90
[6]; 125 g ai/ha
  Plant response rating, Ragweed: 50
[6]; [18]
  Plant response rating, Ragweed: 80
[7]; 125 g ai/ha
  Plant response rating, Pigweed: 60
[7]; [18]
  Plant response rating, Pigweed: 80
[8]; 125 g ai/ha
  Plant response rating, Barnyardgrass: 60
[8]; [18]
  Plant response rating, Barnyardgrass: 90
[9]; [17]
  Plant response rating, Ragweed: 40
[9]; 500 g ai/ha
  Ragweed plant response rating: 70
[10]; 125 g ai/ha
  Plant response rating, Galium: 80
[10]; [18]
  Plant response rating, Galium: 90
[11]; [17]
  Plant response rating, Foxtail, Giant: 100
[11]; 500 g ai/ha
  Foxtail, Giant plant response rating: 100
[12]; 125 g ai/ha
  Plant response rating, Wheat: 0
[12]; [18]
  Plant response rating, Wheat: 20
[13]; [17]
  Plant response rating, Ryegrass, Italian: 30
[13]; 500 g ai/ha
  Ryegrass, Italian plant response rating: 80
[14]; 125 g ai/ha
  Plant response rating, Ryegrass, Italian: 0
[14]; [18]
  Plant response rating, Ryegrass, Italian: 10
Kochia (Bassia scoparia) [15]; 125 g ai/ha
  Plant response rating, Kochia: 20
Kochia (Bassia scoparia) [15]; [18]
  Plant response rating, Kochia: 60
